{
  "source": "patent US20050004044A1",
  "about": "“Use of orsaponin [3beta, 16beta, 17 alpha-trihydroxycholost-5-en-22-one 16-0-(2-0-4-methoxybenzoyl-beta-D-xylopyranosyl)-(1->3)-(2-0-acetyl-alpha-L-arabinopyranoside)] or OSW-1 and its derivatives for cancer therapeutics” (priority 2003, published 2005)",
  "key": {"[1]": {"test_system": "primary normal lymphocytes", "assay": "MTT cell viability, normal lymphocytes from healthy donors", "type": "cell-based", "settings": "Homo sapiens, Lymphocyte", "procedure": "FIG. 8. Effect of Orsaponin (OSW-1) on cell survival in primary normal lymphocytes isolated from healthy donors. Freshly isolated normal lymphocytes were incubated with the indicated concentrations of OSW-1 for 72 hours in vitro. Cell viability was measured by MTT assay. The IC50 value estimated to be 4 nM and 3 nM in case #1 and #2, respectively.\n1. MTT Assays. For these assays either cancer cell lines were used. Alternatively, mononuclear cells from peripheral blood samples of CLL patients or normal donors were separated by Ficoll Hipaque fractionation and resuspended in DMEM complete medium. Malignant cells from various human cell lines (usually at 5×10^4 cells/ml) or mononuclear cells from peripheral blood of leukemia patients and healthy donors (1×10^6 cells/ml) were incubated in either αMEM or RPMI 1640 with or without various concentrations of OSW-1 in the range of 0-10 nM. Each experimental condition was done in triplicate. After the indicated number of days (usually 3 days or 72 hours) of exposure to OSW-1, cell survival was assessed by the addition of the MTT dye to the wells. The MTT dye changes its color depending on the presence of live cells in the well. Survival of cells under orsaponin treatment was evaluated as a percentage of control cell growth. Alternatively, one can also use the dye trypan-blue which penetrates dead cells thereby allowing one to count live cells under the microscope and estimating percentage survival.\nAs controls the effect of OSW-1 on cell survival in primary normal lymphocytes isolated from healthy donors was also analyzed. Freshly isolated normal lymphocytes were incubated with the 01-0 nM OSW-1 for 72 hours in vitro and cell viability was measured by MTT assay. As depicted in FIG. 8, the IC50 value estimated to be 4 nM and 3 nM in case #1 and #2, respectively."}, "[2]": {"test_system": "normal human pulmonary cells", "settings": "Mimaki et al., 1997; read-out: IC50, toxicity to normal human pulmonary cells; cited from earlier work"}},
  "note": "Like-named read-outs stand apart in the source and are kept apart here.",
  "data": [
    {"smiles": "COc1ccc(C(=O)OC2C(OC3C(O)COC(O[C@H]4C[C@H]5[C@@H]6CC=C7C[C@@H](O)CC[C@]7(C)[C@H]6CC[C@]5(C)[C@@]4(O)[C@H](C)C(=O)CCC(C)C)C3OC(C)=O)OCC(O)C2O)cc1", "note": "(stereo partly drawn) [OSW-1, 3β, 16β, 17 α-trihydroxycholost-5-en-22-one 16-O-(2-O-4-methoxybenzoyl-β-D-xylopyranosyl)-(1->3)-(2-O-acetyl-α-L-arabinopyranoside)]", "values": [
      {"measurement": "IC50", "setting": "[1]; 72 h, normal lymphocytes, 72 hours, case #1, read-out: IC50, cell viability", "result": "~4", "unit": "nM"},
      {"measurement": "IC50", "setting": "[1]; 72 h, normal lymphocytes, 72 hours, case #2, read-out: IC50, cell viability", "result": "~3", "unit": "nM"},
      {"measurement": "IC50", "setting": "[1]; Normal Lymphocytes, mean, read-out: IC50", "result": "3.5 ± 0.7", "unit": "nM"},
      {"measurement": "IC50", "setting": "[2]", "result": 1500, "unit": "nM"}
    ]}
  ]
}
